# According to patent US20250332173A1, “COMPOUNDS AND METHODS FOR MODULATING NUCLEIC ACID SPLICING” (REMIX THERAPEUTICS INC., priority 2021, published 2025):
# How the values were obtained:
# Format in all cases: cell-based, human
# Target C [1] = assay: RT-qPCR splicing assay panel, Target C canonical junction (CJ) mRNA; conditions: Homo sapiens
# Outline: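 A673 or K562 cells were treated for 24 h at 37 °C with compound in 11-point 3-fold dilution (top 10 uM final, DMSO ≤0.25%). Lysates then went to one-step RT-qPCR measuring canonical-junction mRNA, normalized to GAPDH, GUSB or PPIA.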
# HTT = assay: HiBiT protein abundance assay, HTT HiBiT K562 cell line; conditions: HiBiT K562 cell line, 24 hours, top dose 10 μM; read-out: Effect on protein abundance, HTT (IC50 category)
# Outline: (§1)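 Tagged-protein abundance measured by split-NanoBiT luminescence after lysis, following 24 h compound exposure (37° C; 10 μM top, 3-fold, 10 points; DMSO ≤0.25%) of HiBiT knock-in K562 cells. Percent response vs DMSO and unmodified-cell controls; 4-parameter logistic interpolation at 50% gave IC50.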
# Target C [2] = assay: HiBiT protein abundance assay, Target C (Promega Nano-Glo HiBiT Lytic Detection System, knock-in K562 cell line); conditions: Homo sapiens, K562, 24 h, HiBiT K562 cell line, 24 hours, top dose 10 μM; read-out: Effect on protein abundance, Target C (IC50 category)
# Outline: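 Protein abundance was read by Nano-Glo HiBiT lytic luminescence after 24 h compound exposure (10-point, threefold series from 10 μM final) of HiBiT knock-in K562 cells. Parental K562 served as baseline; the 50%-abundance concentration was interpolated from a four-parameter logistic fit.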
# MYB = assay: HiBiT protein abundance assay, MYB HiBiT K562 cell line; conditions: HiBiT K562 cell line, 24 hours, top dose 10 μM; read-out: Effect on protein abundance, MYB (IC50 category)
# Outline: as §1
# [3] = canonical junction qPCR panel, Table 5, read-out: Target C (decrease in CJ mRNA levels, IC50)
# [4] = Table 5 panel, canonical junction qPCR, compound concentration having 50% response in CJ decrease, read-out: Target C IC50 (decrease in CJ mRNA levels)
SMILES,IC50 (Target C [1]; [3]),IC50 (HTT),IC50 (Target C [2]),IC50 (MYB),IC50 (Target C [1]; [4])
Cc1cn2cc(-c3ccc4c(=O)n(C5CCNC5)ccc4n3)cc(F)c2n1 (stereo not drawn) [Compound 1299],> 10000 nM,> 10000 nM,> 10000 nM,1000 to 10000 nM,–
"Cc1c(O)c(-c2ncc3c(=O)n([C@@H]4C[C@@H](C)N[C@@H](C)C4)ccc3n2)cc2cn(C)nc12 [Compound 1453, 6-[(2S,6R)-2,6-dimethyl-4-piperidyl]-2-(6-hydroxy-2,7-dimethyl-indazol-5-yl)pyrido[4,3-d]pyrimidin-5-one]",> 10000 nM,1000 to 10000 nM,> 10000 nM,100 to 1000 nM,–
"Cc1cc(-c2cc3ccn(C4CCN(C5CC5)CC4)c(=O)c3cn2)cc2cn(C)nc12 [Compound 1208, 2-(1-cyclopropylpiperidin-4-yl)-6-(2,7-dimethyl-2H-indazol-5-yl)-2,7-naphthyridin-1(2H)-one]",–,> 10000 nM,> 10000 nM,1000 to 10000 nM,> 10000 nM
Cn1cc2cc(-c3ncc4c(=O)n(C5CCNCC5)ccc4n3)c(O)cc2n1 [Compound 1211],–,100 to 1000 nM,100 to 1000 nM,< 100 nM,1000 to 10000 nM
"Cc1cc(-c2cc3ccn(C4CCN(C5COC5)CC4)c(=O)c3cn2)cc2cn(C)nc12 [Compound 1209, 6-(2,7-dimethyl-2H-indazol-5-yl)-2-(1-(oxetan-3-yl)piperidin-4-yl)-2,7-naphthyridin-1(2H)-one-1]",–,100 to 1000 nM,100 to 1000 nM,100 to 1000 nM,100 to 1000 nM
CN1CCC(Nc2ccc3c(=O)n(-c4ccc5cn(C)nc5c4)cnc3c2)CC1 [Compound 203],–,> 10000 nM,> 10000 nM,> 10000 nM,> 10000 nM
"Cc1cc(-c2cc3ccn(C4CCN(CCO)CC4)c(=O)c3cn2)cc2cn(C)nc12 [Compound 1210, 6-(2.7-dimethyl-2H-indazol-5-yl)-2-(1-(2-hydroxyethyl)piperidin-4-yl)-2,7-naphthyridin-1(2H)-one]",–,1000 to 10000 nM,> 10000 nM,1000 to 10000 nM,> 10000 nM
"Cc1c(O)c(-c2ccc3c(=O)n([C@H]4CCNC4)ccc3n2)cc2cn(C)nc12 [Compound 1449, 2-(6-hydroxy-2,7-dimethyl-indazol-5-yl)-6-[(3S)-pyrrolidin-3-yl]-1,6-naphthyridin-5-one]",> 10000 nM,1000 to 10000 nM,1000 to 10000 nM,100 to 1000 nM,–
"Cc1c(O)c(-c2ncc3c(=O)n(C4C[C@H]5C[C@@H]4CN5)ccc3n2)cc2cn(C)nc12 (stereo in doubt) [Compound 1444, 6-[(1R,4R,5R)-2-azabicyclo[2.2.1]heptan-5-yl]-2-(6-hydroxy-2,7-dimethyl-indazol-5-yl)pyrido[4,3-d]pyrimidin-5-one]",100 to 1000 nM,100 to 1000 nM,100 to 1000 nM,100 to 1000 nM,–
Cn1cc2cc(-c3ccc4c(=O)n(C5CCNCC5)cnc4c3)ccc2n1 [Compound 182],–,1000 to 10000 nM,1000 to 10000 nM,100 to 1000 nM,1000 to 10000 nM
Cc1cn2cc(-c3ccc4c(=O)n(C5CCNC5)ccc4n3)c(O)c(C)c2n1 (stereo not drawn) [Compound 1302],> 10000 nM,> 10000 nM,> 10000 nM,> 10000 nM,–
"Cc1c(O)c(-c2ccc3c(=O)n(C4CC(C)NC(C)C4)ccc3n2)cc2cn(C)nc12 (stereo not drawn) [Compound 1447, 6-(2,6-dimethyl-4-piperidyl)-2-(6-hydroxy-2,7-dimethyl-indazol-5-yl)-1,6-naphthyridin-5-one]",1000 to 10000 nM,100 to 1000 nM,100 to 1000 nM,< 100 nM,–
"Cc1cn2cc(-c3ncc4c(=O)n([C@@H]5CCNC6(CC6)C5)ccc4n3)cc(F)c2n1 [Compound 1457, 6-[(7R)-4-azaspiro[2.5]octan-7-yl]-2-(8-fluoro-2-methyl-imidazo[1,2-a]pyridin-6-yl)pyrido[4,3-d]pyrimidin-5-one]",1000 to 10000 nM,100 to 1000 nM,1000 to 10000 nM,100 to 1000 nM,–
"Cc1cn2cc(-c3ccc4c(=O)n(C5CCNCC5)ccc4n3)cc(C)c2n1 [Compound 1241, 2-(2,8-dimethylimidazo[1,2-a]pyridin-6-yl)-6-(piperidin-4-yl)-1,6-naphthyridin-5(6H)-one]",1000 to 10000 nM,< 100 nM,< 100 nM,< 100 nM,–
"Cc1cn2nc(-c3ccc4c(=O)n([C@H]5CCNC5)ccc4n3)cc(C)c2n1 [Compound 1437, 2-(2,8-dimethylimidazo[1,2-b]pyridazin-6-yl)-6-[(3S)-pyrrolidin-3-yl]-1,6-aphthyridin-5-one]",1000 to 10000 nM,1000 to 10000 nM,1000 to 10000 nM,100 to 1000 nM,–
"Cc1c(O)c(-c2ncc3c(=O)n(C4CCNC4)ccc3n2)cc2cn(C)nc12 (stereo in doubt) [Compound 1440, (6S)-2-(6-hydroxy-2,7-dimethyl-indazol-5-yl)-6-pyrrolidin-3-yl-pyrido[4,3-d]pyrimidin-5-one]",> 10000 nM,1000 to 10000 nM,> 10000 nM,100 to 1000 nM,–
"Cc1c(O)c(-c2ncc3c(=O)n([C@@H]4C[C@H]5C[C@@H]4CN5)ccc3n2)cc2cn(C)nc12 (stereo in doubt) [Compound 1446, 6-[(1R,4R,5R)-2-azabicyclo[2.2.1]heptan-5-yl]-2-(6-hydroxy-2,7-dimethyl-indazol-5-yl)pyrido[4,3-d]pyrimidin-5-one]",> 10000 nM,> 10000 nM,> 10000 nM,1000 to 10000 nM,–
Cn1cc2cc(-c3cc4ccn(C5CCNCC5)c(=O)c4cn3)c(O)c(F)c2n1 [Compound 1199],–,1000 to 10000 nM,1000 to 10000 nM,1000 to 10000 nM,1000 to 10000 nM
"CCN1CCC(n2ccc3cc(-c4cc(C)c5nn(C)cc5c4)ncc3c2=O)CC1 [Compound 1207, 6-(2,7-dimethyl-2H-indazol-5-yl)-2-(1-ethylpiperidin-4-yl)-2,7-naphthyridin-1(2H)-one]",–,1000 to 10000 nM,1000 to 10000 nM,1000 to 10000 nM,1000 to 10000 nM
"Cc1cc(-c2cc3ccn(C4CCNCC4)c(=O)c3cn2)cc2cn(C)nc12 [Compound 1204, 6-(2,7-dimethyl-2H-indazol-5-yl)-2-(piperidin-4-yl)-2,7-naphthyridin-1(2H)-one]",–,100 to 1000 nM,1000 to 10000 nM,100 to 1000 nM,1000 to 10000 nM
"Cc1c(O)c(-c2ncc3c(=O)n([C@@H]4C[C@H]5CC[C@@H](C4)N5)ccc3n2)cc2cn(C)nc12 [Compound 1429, 6-[(1S,5R)-8-azabicyclo[3.2.1]octan-3-yl]-2-(6-hydroxy-2,7-dimethyl-indazol-5-yl)pyrido[4,3-d]pyrimidin-5-one]",1000 to 10000 nM,100 to 1000 nM,100 to 1000 nM,< 100 nM,–
"Cn1cc2cc(-c3ccc4c(=O)n([C@H]5CCNC5)ccc4n3)c(O)c(F)c2n1 [Compound 1451, 2-(7-fluoro-6-hydroxy-2-methyl-indazol-5-yl)-6-[(3S)-pyrrolidin-3-yl]-1,6-naphthyridin-5-one]",100 to 1000 nM,100 to 1000 nM,100 to 1000 nM,100 to 1000 nM,–
Cc1cn2cc(-c3ncc4c(=O)n(C5CCNCC5)ccc4n3)c(O)c(C)c2n1 [Compound 1225],–,100 to 1000 nM,100 to 1000 nM,100 to 1000 nM,100 to 1000 nM
COc1c(-c2cc3ccn(C4CCNCC4)c(=O)c3cn2)cc2cn(C)nc2c1F [Compound 1219],–,1000 to 10000 nM,1000 to 10000 nM,100 to 1000 nM,> 10000 nM
Cc1cn2cc(-c3cc(O)c4c(=O)n(C5CCNCC5)ccc4n3)cc(F)c2n1 [Compound 1448],1000 to 10000 nM,100 to 1000 nM,100 to 1000 nM,100 to 1000 nM,–
COc1c(-c2ccc3c(=O)n(C4CCNCC4)ccc3n2)cc2cn(C)nc2c1C [Compound 1243],> 10000 nM,> 10000 nM,> 10000 nM,> 10000 nM,–
"Cc1c(O)c(-c2ncc3c(=O)n([C@H]4C[C@@H](N)C4)ccc3n2)cc2cn(C)nc12 [Compound 1431, 6-((1s,3s)-3-aminocyclobutyl)-2-(6-hydroxy-2,7-dimethyl-2H-indazol-5-yl)pyrido[4,3-d]pyrimidin-5(6H)-one]",1000 to 10000 nM,1000 to 10000 nM,1000 to 10000 nM,100 to 1000 nM,–
Cn1cc2cc(-c3ccc4c(=O)n([C@@H]5CCNC6(CC6)C5)ccc4n3)c(O)cc2n1 [Compound 1246],1000 to 10000 nM,100 to 1000 nM,100 to 1000 nM,100 to 1000 nM,–
Cc1c(O)c(-c2ncc3c(=O)n(C4CCNC4)ccc3n2)cc2cn(C)nc12 (stereo not drawn) [Compound 1222],–,> 10000 nM,> 10000 nM,< 100 nM,> 10000 nM
"Cc1cn2nc(-c3ccc4c(=O)n([C@@H]5CCNC5)ccc4n3)cc(C)c2n1 [Compound 1438, 2-(2,8-dimethylimidazo[1,2-b]pyridazin-6-yl)-6-[(3R)-pyrrolidin-3-yl]-1,6-naphthyridin-5-one]",1000 to 10000 nM,1000 to 10000 nM,1000 to 10000 nM,100 to 1000 nM,–
